Experiments:
rat brain tumor = test: SWEETEST (CEST) MRI, sucralose injection studies in a rat brain tumor; assay type: in vivo; conditions: sucralose 300 mM via tail vein, 40 minute post injection, vs baseline
Method: (§1) Different concentration of Splenda and sucralose were prepared in PBS and all the experiments were performed at 37° C. on a 9.4 T horizontal bore small animal MR scanner (Varian, Palo Alto, CA). CEST images were acquired at different saturation power and saturation lengths from frequency offset −5 to 5 ppm in step size of 0.1 ppm. Acquired CEST images were corrected for B0 and used to generate CEST contrast map using Equation [1].
(§2) [formula] where S−ve and S+ve are the B0 corrected MRI signals obtained at −1 ppm and +1 ppm respectively, and S0 is the image obtained without any saturation. CEST contrast was further corrected for B1 and mapped as false-colors onto anatomical proton image. The CEST asymmetry plots were generated by plotting the relative water signal difference at frequency offset from 0 to 4.8 ppm. • FIG. 1: Z-spectra (A), asymmetry plot (B), and CEST map (C) of CEST effect from 0.5% Splenda. […]
(§3) Imaging was performed in tumor-bearing animals at a 9.4 T horizontal bore Varian system. […] Respiration and body temperature were continuously monitored using a MRI-compatible small animal monitor system (SA Instruments, Inc., Stony Brook, NY). CEST imaging was performed using a custom-programmed, segmented radiofrequency GRE readout pulse sequence, with a frequency selective continuous wave saturation preparation pulse. […]

mouse tumors = test: CEST MRI of tumor-bearing animals before and after sucralose injection; assay type: in vivo; conditions: tumor region; sucralose 100 mM intra peritoneally; at 40 minutes; vs baseline
Method: as §1, §2, §3

In the case of `OC[C@H]1O[C@H](O[C@]2(CCl)O[C@H](CCl)[C@@H](O)[C@@H]2O)[C@H](O)[C@@H](O)[C@H]1Cl` [sucralose], the “increase in SWEETEST contrast” value (rat brain tumor) is reported as ~80% and the “percent change in the contrast post injection of sucralose” value (mouse tumors) is reported as “about 100%”.

— patent publication US11938200B2, “Non-nutritive sweeteners and polyols as imaging agents” (THE TRUSTEES OF THE UNIVERSITY OF PENNSYLVANIA, priority 2016, dated 2024)
